Data published in US10570176B2, “Anti-hepatitis B virus X protein polypeptide pharmaceutical” (priority 2015, dated 2020).
Non-standard residues stand in square brackets, D forms with d. No end group written: not given here.

How the values were obtained:
[1] = system: liver cancer HepAD38 cells integrated with HVB DNA; assay: HBeAg secretion ELISA in HepAD38 cells; type: cell-based; settings: for Inhibition of HBeAg secretion levels: 10 μM
Protocol: (§1) 3. Analysis of function of D-TTK001 on HBeAg secreation in liver cancer cells utilizing enzyme-linked immunosorbent assay (ELISA)
(§2) (i) Biosafety cabinet was ultraviolet sterilized for 30 min and purged for 30 min; DMEM/F12 (1:1) culture medium containing 15% fetal bovine serum, HepAD38 cells (or HepG2.2.15 cells) were taken out, sterilized with 75% alcohol, and placed in the biosafety cabinet.
(§3) (ii) Under aseptic conditions, discard old culture medium, add 3 mL 1×PBS each time, wash twice, add 1 mL 0.25% trypsin, the cells were digested until cell rounding as observed in microscope. Add 5 mL culture medium, dispense cells, count with hemocytometer, and dilute with culture medium to a cell number of 1˜2×10^4 cells/mL.
(§4) (iii) Plating 96-well plate. Under aseptic conditions, discard old culture medium, add 3 mL 1×PBS each time, wash twice, add 1 mL 0.05% trypsin, the cells were digested until cell rounding as observed in microscope. Add 10 mL culture medium, dispense cells, count with hemocytometer, and dilute with DMEM/F12(1:1) culture medium, add 100 μL cell suspension into each well to a cell number of 1˜2×10^3 cells/mL. The outer-most wells are not added with cells. Culturing until cell attachment (usually 12 hrs.) and extension. Subsequent tests can be conducted when cells are in good condition.
(2) Applying D-TTK001 (or L-TTK001, i.e., anti-HBxP1#) to liver cancer HepAD38 cells (or HepG2.2.15 cells)
10 mM D-TTK001 (or L-TTK001) mother solution was serially diluted from high concentration to low concentration, added into liver cancer HepAD38 cells (or HepG2.2.15 cells) culture solution to obtain final concentrations of D-TTK001 (or L-TTK001) of 0.1 μM, 1 μM, 10 and 100 μM in respective groups. […]
(3) Applying ELISA to measure HBeAg content in HepAD38 cell (or HepG2.2.15 cell) culture medium
(i) Balancing: place HBeAg assay kit in room temperature for 30 min.
(ii) Preparing solution: dilute concentrated wash liquid for 25 times with purified water.
(iii) Taking out the plate: take out the reaction plate according to experimental requirements (3 wells for negative control, 1 well for positive control, and 1 well for blank control).
(iv) Adding sample: add 75 μL of test samples or negative/positive control into respective wells, gently shake and mix.
(v) Incubating: after sealed with microplate sealer, incubate at 37° C. for 60 min.
(vi) Adding enzyme: add 50 μL of enzyme conjugates into each well except for blank wells, gently shake and mix.
(vii) Incubating: after sealed with microplate sealer, incubate at 37° C. for 30 min.
(viii) Washing plate: remove microplate sealer carefully, manually wash plate for 5 times, pat dry.
(ix) Developing color: add 50 μL each of color-developing agent A and B liquid, gently shake and mix, develop color in dark placed at 37° C. for 30 min.
(§5) (x) Stopping: add 50 μL of stop solution into each well, gently shake and mix, measure the result in ten minutes. Set wavelength of microplate reader to 450 nm, measure OD value for each well after zero setting with blank wells.
The invention also investigates the role of the functional variants of the polypeptide and functional fragments thereof. The sequences as shown in the following table are artificially synthesized D-amino acid substituted sequences on the basis of L-TTK001 (i.e., anti-HBxP1#). The polypeptide fragments were artificially synthesized according to the sequences (method as above), and then, above-mentioned ELISA method was adopted to observe the change in the functions of the polypeptides.

HepG2.2.15 cells = assay: HBeAg secretion ELISA in HepG2.2.15 cells; type: cell-based; settings: 0.1, 1, 10, 100 μM
Protocol: as §1, §2, §3
as §4, with “The outer-most wells are not added with cells. Culturing until cell attachment (usually 12 hrs.) and extension. Subsequent tests can be conducted when cells are in good condition.” left out
as §5

HepAD38 cells = assay: MTT assay, proliferation of HepAD38 cells; type: cell-based; settings: 0.1, 1, 10, 100 μM, 48 hrs
Protocol: (1) Plating cells: suspend HepAD38 cells at exponential phase in RPMI1640 medium with 10% FBS, and plate 4000-5000 cells in a 96-well plate with 100 μL per well.
(2) Culturing cells: within 12 hrs. for adhesion of cultured cells, add different concentrations of synthesized D-TTK001 (or L-TTK001) polypeptides from Example 1 (0.1 μM, 1 μM, 10 μM and 100 μM) into 8 wells for each concentration, and incubate for 48 hrs. in common condition.
(3) Coloration: add 20 μL of MTT solution (5 mg/mL MTT in PBS buffer (pH7.4)) for each well.
(4) Incubate for 4 hrs., and carefully aspirate off the supernatant from the wells. Add 150 μL of DMSO into each well, shake for 10 min until the crystals were dissolved.
(5) Comparison: Read in an ELISA reader at 490 nm to measure the absorbance for each well. Results were calculated using Student's t-test.

HBx protein = molecular target: T1, HBx protein (Hepatitis B virus genotype D subtype ayw, UniProt P03165); assay: In vitro binding to recombinantly expressed HBx protein, Biacore 3000; settings: in vitro binding to HBx, in vitro binding analysis results
T1 construct: made in house
Protocol: The recombinant plasmid (pET-30a-HBx) expressing HBx gene was self-constructed and preserved (Zhang H, et al. J Biomed Biotechnol, doi:10.1155/2009/289068), and then expression and purification of HBx were conducted according to above reference for the measurement of in vitro binding ability. Biacore 3000 biomolecular interaction analyzing unit (manufactured by GE Healthcare) was utilized to measure in vitro binding ability of polypeptide D-TTK001 to recombinantly expressed HBx protein. Polypeptide at different concentrations were injected for 180 seconds at a rate of 30 μL/min. In dissociation stage, HBS-EP buffer was injected for 900 seconds at a rate of 30 μL/min, then at a rate of 30 μL/min, 2 shots of 1 mM NaOH were injected for 20 seconds to regenerate the chip. All signals were calibrated using channel 1 as the reference channel. Binding measurement was conducted twice, respectively, wherein in the first measurement, HBX was injected into the channel of the coupled polypeptide and the blank channel at concentrations of 0 nM, 10 nM, 50 nM, 100 nM, 500 nM and 600 nM, respectively. Binding time was 180 seconds and dissociation time was 400 seconds. On chip surface, 1 mM NaOH was injected for 20 seconds at a rate of 30 μL/min for regeneration. In the second measurement, HBX was injected into the channel of coupled polypeptide and the blank channel at concentrations of 0 nM, 10 nM, 50 nM, 588 nM, 1 μM, and 2 μM, respectively. Binding time was 180 seconds and dissociation time was 400 seconds. On chip surface, 1 mM NaOH was injected for 20 seconds at a rate of 30 μL/min for regeneration. Results were kinetically analyzed by BIA Evaluation Software.

T1 sequence (P03165 whole entry): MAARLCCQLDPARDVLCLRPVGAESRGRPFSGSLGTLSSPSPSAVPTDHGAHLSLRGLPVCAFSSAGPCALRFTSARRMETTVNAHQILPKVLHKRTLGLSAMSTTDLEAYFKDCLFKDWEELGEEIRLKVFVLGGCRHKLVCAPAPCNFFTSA

Substance | Inhibition of HBeAg secretion levels [1] | other results
G-D/S-A-V-M-F-S-S-K-E-R-G (G[dS]AVMFSSKERG) [D-TTK001-1] | inhibits HBeAg secretion levels of HepAD38 cells to various extents | –
G-S-A-D/V-M-F-S-S-K-E-R-G (GSA[dV]MFSSKERG) [D-TTK001-3] | inhibits HBeAg secretion levels of HepAD38 cells to various extents | –
G-S-A-V-D/M-F-S-S-K-E-R-G (GSAV[dM]FSSKERG) [D-TTK001-4] | inhibits HBeAg secretion levels of HepAD38 cells to various extents | –
G-S-A-V-M-D/F-S-S-K-E-R-G (GSAVM[dF]SSKERG) [D-TTK001-5] | inhibits HBeAg secretion levels of HepAD38 cells to various extents | –
G-S-A-V-M-F-D/S-S-K-E-R-G (GSAVMF[dS]SKERG) [D-TTK001-6] | inhibits HBeAg secretion levels of HepAD38 cells to various extents | –
G-S-A-V-M-F-S-D/S-K-E-R-G (GSAVMFS[dS]KERG) [D-TTK001-7] | inhibits HBeAg secretion levels of HepAD38 cells to various extents | –
G-S-A-V-M-F-S-S-D/K-E-R-G (GSAVMFSS[dK]ERG) [D-TTK001-8] | inhibits HBeAg secretion levels of HepAD38 cells to various extents | –
G-S-A-V-M-F-S-S-K-D/E-R-G (GSAVMFSSK[dE]RG) [D-TTK001-9] | inhibits HBeAg secretion levels of HepAD38 cells to various extents | –
G-S-A-V-M-F-S-S-K-E-D/R-G (GSAVMFSSKE[dR]G) [D-TTK001-10] | inhibits HBeAg secretion levels of HepAD38 cells to various extents | –
G-S-D/A-V-M-F-S-S-K-E-R-G (GS[dA]VMFSSKERG) [D-TTK001-2] | inhibits HBeAg secretion levels of HepAD38 cells to various extents | –
GSAVMFSSKERG [L-TTK001, Gly-Ser-Ala-Val-Met-Phe-Ser-Ser-Lys-Glu-Arg-Gly, reference compound] | – | Minimum effective dose on HBeAg secretion levels (HepG2.2.15 cells): 10 µM; Minimum effective dose on growth and proliferation (MTT) (HepAD38 cells): 10 µM; Minimum effective dose on HBeAg secretion levels ([1]; 0.1, 1, 10, 100 μM): 10 µM; Kd (HBx protein): 8 nM
